Source: ChEMBL document CHEMBL1201862, “PubChem BioAssay data set” (2004)
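Protocol summary: plate cells (96-well), add compound at 5 concentrations, incubate 48 h, interpolate endpoints linearly. Abbreviation: GI50, concentration required for 50% inhibition of growth.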 Calls of active or inactive are those of the source. Rule as the data show it: active = GI50 up to about 1.1 µM and inactive = higher.

Tests used:
Test in all cases: growth of human tumour cells (NCI), 48 h
[1] = test system: A498
[2] = test system: DU-145
[3] = test system: HCC 2998
[4] = test system: HOP-62
[5] = test system: HT-29
[6] = test system: KM12
[7] = test system: MCF7
[8] = test system: MDA-N
[9] = test system: NCI-H460
[10] = test system: NCI/ADR-RES
[11] = test system: OVCAR-3
[12] = test system: OVCAR-4
[13] = test system: OVCAR-8
[14] = test system: PC-3
[15] = test system: RPMI-8226
[16] = test system: SK-MEL-28
[17] = test system: SK-MEL-2
[18] = test system: SK-OV-3
[19] = test system: U-251
[20] = test system: HOP-92

Measured: GI50

CC(=O)C(=[N+]=[N-])C(=O)N1CCOC1=O
inactive: [1] > 10 µM | [2] > 10 µM | [3] > 10 µM | [4] > 10 µM | [5] > 10 µM | [6] > 10 µM | [7] > 10 µM | [8] > 10 µM | [9] > 10 µM | [10] > 10 µM | [11] > 10 µM | [12] > 10 µM | [13] > 10 µM | [14] > 10 µM | [15] > 10 µM | [16] > 10 µM | [17] > 10 µM | [18] > 10 µM | [19] > 10 µM

CC(C#N)(NO)C(C)(C#N)NO (configuration not stated)
inactive: [1] > 100 µM | [2] > 100 µM | [3] > 100 µM | [5] > 100 µM | [6] > 100 µM | [7] > 100 µM | [8] > 100 µM | [9] > 100 µM | [10] > 100 µM | [11] > 100 µM | [12] > 100 µM | [13] > 100 µM | [14] > 100 µM | [15] > 100 µM | [16] > 100 µM | [17] > 100 µM | [18] > 100 µM | [19] > 100 µM

c1ccc2c3c(c(N4CCNCC4)nc2c1)CCCC3
inactive: [1] 14.5 µM | [2] 15.3 µM | [3] 1.95 µM | [4] 17.7 µM | [20] 14.2 µM | [5] 14.2 µM | [6] 17.2 µM | [7] 14.4 µM | [8] 13.9 µM | [9] 15.1 µM | [10] 14.1 µM | [11] 15.5 µM | [12] 16 µM | [13] 15.5 µM | [14] 13 µM | [16] 16.1 µM | [17] 12.6 µM | [18] 18.8 µM | [19] 13.4 µM

COC(=O)C(O)P(=O)(OC)OC (configuration not stated)
inactive: [1] > 100 µM | [2] > 100 µM | [4] > 100 µM | [20] > 100 µM | [5] > 100 µM | [6] > 100 µM | [7] > 100 µM | [8] > 100 µM | [10] > 100 µM | [11] > 100 µM | [12] > 100 µM | [13] > 100 µM | [14] > 100 µM | [15] > 100 µM | [16] > 100 µM | [17] > 100 µM | [18] > 100 µM | [19] > 100 µM

CC(=O)Nc1ncc2c(n1)-c1ccccc1OC2c1ccccc1 (configuration not stated)
inactive: [1] 20.7 µM | [2] > 100 µM | [20] 14.8 µM | [5] > 100 µM | [6] > 100 µM | [7] > 100 µM | [8] > 100 µM | [9] > 100 µM | [10] 32.8 µM | [11] > 100 µM | [12] 18.5 µM | [13] 23.6 µM | [14] > 100 µM | [15] > 100 µM | [17] 71.8 µM | [18] 42.8 µM | [19] 33.1 µM

CSC(SC)=C(C(=O)O)P(=O)(O)O
inactive: [1] > 100 µM | [2] > 100 µM | [3] > 100 µM | [4] > 100 µM | [20] > 100 µM | [5] > 100 µM | [6] > 100 µM | [7] > 100 µM | [8] > 100 µM | [9] > 100 µM | [10] > 100 µM | [11] > 100 µM | [12] > 100 µM | [13] > 100 µM | [14] > 100 µM | [16] > 100 µM | [17] > 100 µM | [18] > 100 µM

[N-]=[N+]=Nc1c(-c2ccccc2)c(=O)n(-c2ccccc2)c2ccccc12
inactive: [1] 77.8 µM | [2] > 100 µM | [3] 35.2 µM | [4] 99.5 µM | [20] 49.4 µM | [5] 41.7 µM | [6] 67.6 µM | [7] 54.1 µM | [8] 45.3 µM | [9] 46.5 µM | [10] 63 µM | [11] 52 µM | [12] 64 µM | [13] 90.2 µM | [14] 32.4 µM | [15] > 100 µM | [16] 94.6 µM | [18] > 100 µM | [19] 52.1 µM

NCCNCCNc1ccc(NCCNCCN)c2c1C(=O)c1c(O)ccc(O)c1C2=O
inactive: [1] 70 µM | [2] > 100 µM | [3] > 100 µM | [4] > 100 µM | [20] > 100 µM | [5] > 100 µM | [6] > 100 µM | [7] 59.7 µM | [8] > 100 µM | [9] 8.75 µM | [10] > 100 µM | [11] > 100 µM | [12] > 100 µM | [13] > 100 µM | [14] > 100 µM | [15] > 100 µM | [16] > 100 µM | [18] > 100 µM | [19] > 100 µM
